Assay results taken from patent publication US20090018134A1, “Compounds - 945” (AstraZeneca AB, priority 2007, published 2009).

target: T1, mTOR (Homo sapiens, UniProt P42345); experiment: In Vitro mTOR Kinase Assay (Echo), Test (a)(ii); type: biochemical; settings: table of enzyme assay Test (a)(ii); read-out: Test (a)(ii) IC50
T1 construct: FLAG; made in house
Procedure, shortened: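 AlphaScreen read-out: biotinylated substrate phosphorylation was detected with anti-p70 S6K (T389) 1A5 antibody, Protein A acceptor and streptavidin donor beads after overnight dark incubation at room temperature. Enzyme was FLAG-mTOR 1362-2549 from stable HEK293 cells.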

T1 sequence (P42345 1362-2549): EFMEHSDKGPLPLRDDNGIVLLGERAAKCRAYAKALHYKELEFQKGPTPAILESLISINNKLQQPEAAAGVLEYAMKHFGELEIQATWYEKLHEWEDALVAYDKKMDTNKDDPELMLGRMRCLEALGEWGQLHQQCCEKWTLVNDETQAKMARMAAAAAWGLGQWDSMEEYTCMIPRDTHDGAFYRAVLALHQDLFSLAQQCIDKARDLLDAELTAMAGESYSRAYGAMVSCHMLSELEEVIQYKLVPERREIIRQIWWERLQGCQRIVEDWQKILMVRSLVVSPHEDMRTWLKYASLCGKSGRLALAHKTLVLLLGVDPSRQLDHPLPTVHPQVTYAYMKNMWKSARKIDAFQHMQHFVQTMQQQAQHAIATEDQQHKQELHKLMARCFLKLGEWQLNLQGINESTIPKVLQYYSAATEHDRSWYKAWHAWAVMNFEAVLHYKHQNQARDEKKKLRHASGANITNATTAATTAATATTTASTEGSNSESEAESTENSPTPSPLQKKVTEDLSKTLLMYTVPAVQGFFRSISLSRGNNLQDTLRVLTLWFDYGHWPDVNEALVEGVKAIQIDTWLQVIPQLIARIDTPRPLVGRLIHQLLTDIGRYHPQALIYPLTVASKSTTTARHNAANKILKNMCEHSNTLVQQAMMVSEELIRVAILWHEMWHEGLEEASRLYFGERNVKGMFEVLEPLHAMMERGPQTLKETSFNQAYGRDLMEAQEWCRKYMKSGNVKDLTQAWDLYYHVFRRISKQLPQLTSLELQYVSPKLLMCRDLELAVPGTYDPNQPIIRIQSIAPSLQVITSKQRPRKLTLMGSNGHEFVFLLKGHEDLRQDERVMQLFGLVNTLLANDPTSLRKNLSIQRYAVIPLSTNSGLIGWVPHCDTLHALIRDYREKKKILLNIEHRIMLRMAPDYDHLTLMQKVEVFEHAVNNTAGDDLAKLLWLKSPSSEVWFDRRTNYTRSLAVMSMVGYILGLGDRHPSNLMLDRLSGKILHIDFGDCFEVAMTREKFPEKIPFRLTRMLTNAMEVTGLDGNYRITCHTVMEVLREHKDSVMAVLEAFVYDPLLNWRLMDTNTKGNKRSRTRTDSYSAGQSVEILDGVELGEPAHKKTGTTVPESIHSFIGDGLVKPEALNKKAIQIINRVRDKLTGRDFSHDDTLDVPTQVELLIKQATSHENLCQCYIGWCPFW

| SMILES | IC50 [nM] |
| --- | --- |
| C[C@H]1COCCN1c1cc(C2(S(=O)(=O)CCCO)CC2)nc(-c2ccc(NC(=S)NC3CCC3)cc2)n1 [Example 37d, 3-cyclobutyl-1-[4-[4-[1-(3-hydroxypropylsulfonyl)cyclopro-pyl]-6-[(3S)-3-methylmorpholin-4-yl]pyrimidin-2-yl]phenyl]thiourea] | 4.39 |
| C[C@H]1COCCN1c1cc(C2(S(=O)(=O)CCCO)CC2)nc(-c2ccc(NC(=S)NCCC#N)cc2)n1 [Example 37e, 3-(2-cyanoethyl)-1-[4-[4-[1-(3-hydroxypropylsulfonyl)cyclopro-pyl]-6-[(3S)-3-methylmorpholin-4-yl]pyrimidin-2-yl]phenyl]thiourea] | 4.9 |
| CNC(=S)Nc1ccc(-c2nc(N3CCOC[C@@H]3C)cc(C3(S(=O)(=O)CCCO)CC3)n2)cc1 [Example 37g, 1-[4-[4-[1-(3-hydroxypropylsulfonyl)cyclopro-pyl]-6-[(3S)-3-methylmorpholin-4-yl]pyrimidin-2-yl]phenyl]-3-methylthiourea] | 17.9 |
| C[C@H]1COCCN1c1cc(C2(S(=O)(=O)CCCO)CC2)nc(-c2ccc(NC(=S)Nc3cnn(C)c3)cc2)n1 [Example 37j, 1-[4-[4-[1-(3-hydroxypropylsulfonyl)cyclopro-pyl]-6-[(3S)-3-methylmorpholin-4-yl]pyrimidin-2-yl]phenyl]-3-(1-methylpyrazol-4-yl)thiourea] | 30.9 |
| CCCNC(=S)Nc1ccc(-c2nc(N3CCOC[C@@H]3C)cc(C3(S(=O)(=O)CCCO)CC3)n2)cc1 [Example 37l, 3-[4-[4-[1-(3-hydroxypropylsulfonyl)cyclopro-pyl]-6-[(3S)-3-methylmorpholin-4-yl]pyrimidin-2-yl]phenyl]-1-propylthiourea] | 32 |
| CCCNC(=S)Nc1ccc(-c2nc(N3CCOC[C@@H]3C)cc(C3(S(C)(=O)=O)CC3)n2)cc1 [Example 37n, 1-[4-[4-[(3S)-3-methylmorpholin-4-yl]-6-(1-methylsulfonylcyclopropyl)pyri-midin-2-yl]phenyl]-3-propylthiourea] | 39.3 |
| C[C@H]1COCCN1c1cc(C2(S(C)(=O)=O)CC2)nc(-c2ccc(NC(=S)Nc3cnn(C)c3)cc2)n1 [Example 37o, 1-[4-[4-[(3S)-3-methylmorpholin-4-yl]-6-(1-methylsulfonylcyclopropyl)pyri-midin-2-yl]phenyl]-3-(1-methylpyrazol-4-yl)thiourea] | 33 |
| CNC(=S)Nc1ccc(-c2nc(N3CCOC[C@@H]3C)cc(C3(S(=O)(=O)c4ccc(F)cc4)CC3)n2)cc1 [Example 37s, 1-[4-[4-[1-(4-fluorophenyl)sulfonylcyclopropyl]-6-[(3S)-3-methylmorpholin-4-yl]pyrimidin-2-yl]phenyl]-3-methylthiourea] | 7.56 |
| C[C@H]1COCCN1c1cc(C2(S(=O)(=O)c3ccc(F)cc3)CC2)nc(-c2ccc(NC(=S)NC3CC3)cc2)n1 [Example 37t, 3-cyclopropyl-1-[4-[4-[1-(4-fluorophenyl)sulfonylcyclopropyl]-6-[(3S)-3-methylmorpholin-4-yl]pyrimidin-2-yl]phenyl]thiourea] | 8.89 |
| C[C@H]1COCCN1c1cc(C2(S(=O)(=O)c3ccccc3)CC2)nc(-c2ccc(NC(=S)NC3CC3)cc2)n1 [Example 37v, 1-[4-[4-[1-(benzenesulfonyl)cyclopropyl]-6-[(3S)-3-methylmorpholin-4-yl]pyrimidin-2-yl]phenyl]-3-cyclopropylthiourea] | 5.49 |
| C[C@H]1COCCN1c1cc(C2(S(=O)(=O)c3ccccc3)CC2)nc(-c2ccc(NC(=S)Nc3cnn(C)c3)cc2)n1 [Example 37w, 1-[4-[4-[1-(benzenesulfonyl)cyclopropyl]-6-[(3S)-3-methylmorpholin-4-yl]pyrimidin-2-yl]phenyl]-3-(1-methylpyrazol-4-yl)thiourea] | 1.37 |
| C[C@H]1COCCN1c1cc(C2(S(=O)(=O)c3ccccc3)CC2)nc(-c2ccc(NC(=S)NCCCO)cc2)n1 [Example 37x, 1-[4-[4-[1-(benzenesulfonyl)cyclopropyl]-6-[(3S)-3-methylmorpholin-4-yl]pyrimidin-2-yl]phenyl]-3-(3-hydroxypropyl)thiourea] | 9.44 |
| CCNC(=S)Nc1ccc(-c2nc(N3CCOC[C@@H]3C)cc(C3(S(=O)(=O)c4ccccc4)CC3)n2)cc1 [Example 37z, 3-[4-[4-[1-(benzenesulfonyl)cyclopropyl]-6-[(3S)-3-methylmorpholin-4-yl]pyrimidin-2-yl]phenyl]-1-ethylthiourea] | 4.81 |
| CNC(=O)Nc1ccc(-c2nc(N3CCOC[C@@H]3C)cc(C3(S(=O)(=O)c4ncc[nH]4)CC3)n2)cc1 [Example 40] | 4.36 |
| C[C@H]1COCCN1c1cc(C2(S(C)(=O)=O)CC2)nc(-c2ccc(NC(=S)NCCC#N)cc2)n1 [Example 41, 3-(2-Cyanoethyl)-1-[4-[4-[(3S)-3-methylmorpholin-4-yl]-6-(1-methylsulfonylcyclopropyl)pyrimidin-2-yl]phenyl]thiourea] | 30.8 |

The remaining lines, values ahead:

| IC50 [nM] | SMILES |
| --- | --- |
| 50.6 | C[C@H]1COCCN1c1cc(C2(S(C)(=O)=O)CC2)nc(-c2ccc(NC(=S)NCCCO)cc2)n1 [Example 37m, 3-(3-hydroxypropyl)-1-[4-[4-[(3S)-3-methylmorpholin-4-yl]-6-(1-methylsulfonylcyclopropyl)pyri-midin-2-yl]phenyl]thiourea] |
| 5.34 | CNC(=S)Nc1ccc(-c2nc(N3CCOC[C@@H]3C)cc(C3(S(=O)(=O)c4nc(C)cs4)CC3)n2)cc1 [Example 37p, 3-methyl-1-[4-[4-[(3S)-3-methylmorpholin-4-yl]-6-[1-[(4-methyl-1,3-thiazol-2-yl)sulfonyl]cyclopropyl]pyri-midin-2-yl]phenyl]thiourea] |
| 2.94 | Cc1csc(S(=O)(=O)C2(c3cc(N4CCOC[C@@H]4C)nc(-c4ccc(NC(=S)NC5CC5)cc4)n3)CC2)n1 [Example 37q, 3-cyclopropyl-1-[4-[4-[(3S)-3-methylmorpholin-4-yl]-6-[1-[(4-methyl-1,3-thiazol-2-yl)sulfonyl]cyclopropyl]pyri-midin-2-yl]phenyl]thiourea] |
| 1.62 | Cc1csc(S(=O)(=O)C2(c3cc(N4CCOC[C@@H]4C)nc(-c4ccc(NC(=S)NCCO)cc4)n3)CC2)n1 [Example 37r, 3-(2-hydroxyethyl)-1-[4-[4-[(3S)-3-methylmorpholin-4-yl]-6-[1-[(4-methyl-1,3-thiazol-2-yl)sulfonyl]cyclopropyl]pyri-midin-2-yl]phenyl]thiourea] |
| 0.395 | C[C@H]1COCCN1c1cc(C2(S(=O)(=O)c3ccc(F)cc3)CC2)nc(-c2ccc(NC(=S)NCCO)cc2)n1 [Example 37u, 1-[4-[4-[1-(4-fluorophenyl)sulfonylcyclopropyl]-6-[(3S)-3-methylmorpholin-4-yl]pyrimidin-2-yl]phenyl]-3-(2-hydroxyethyl)thiourea] |
| 1.31 | Cc1nnc(S(=O)(=O)C2(c3cc(N4CCOC[C@@H]4C)nc(-c4ccc(NC(=O)NC5CC5)cc4)n3)CC2)s1 [Example 38, 3-Cyclopropyl-1-[4-[4-[(3S)-3-methylmorpholin-4-yl]-6-[1-[(5-methyl-1,3,4-thiadiazol-2-yl)sulfonyl]cyclopropyl]pyrimidin-2-yl]phenyl]urea] |
| 0.918 | CNC(=O)Nc1ccc(-c2nc(N3CCOC[C@@H]3C)cc(C3(S(=O)(=O)c4nnc(C)s4)CC3)n2)cc1 [Example 38a] |
| 0.351 | C[C@H]1COCCN1c1cc(C2(S(=O)(=O)c3nccs3)CC2)nc(-c2ccc(NC(=O)NC3CC3)cc2)n1 [Example 39, 3-Cyclopropyl-1-[4-[4-[(3S)-3-methylmorpholin-4-yl]-6-[1-(1,3-thiazol-2-ylsulfonyl)cyclopropyl]pyrimidin-2-yl]phenyl]urea] |
| 0.502 | CNC(=O)Nc1ccc(-c2nc(N3CCOC[C@@H]3C)cc(C3(S(=O)(=O)c4nccs4)CC3)n2)cc1 [Example 39a] |
| 0.705 | Cc1csc(S(=O)(=O)C2(c3cc(N4CCOCC4)nc(-c4ccc(NC(=O)NC5CC5)cc4)n3)CC2)n1 [Example 42, 3-Cyclopropyl-1-[4-[4-[1-[(4-methyl-1,3-thiazol-2-yl)sulfonyl]cyclopropyl]-6-morpholin-4-ylpyrimidin-2-yl]phenyl]urea] |
| 2.61 | Cc1csc(S(=O)(=O)C2(c3cc(N4CCOCC4)nc(-c4ccc(NC(=O)NCCO)cc4)n3)CC2)n1 [Example 42a, 3-(2-hydroxyethyl)-1-[4-[4-[1-[(4-methyl-1,3-thiazol-2-yl)sulfonyl]cyclopropyl]-6-morpholin-4-ylpyrimidin-2-yl]phenyl]urea] |
| 5.35 | Cc1csc(S(=O)(=O)C2(c3cc(N4CCOCC4)nc(-c4ccc(NC(=O)Nc5cnn(C)c5)cc4)n3)CC2)n1 [Example 42b, 3-(1-methylpyrazol-4-yl)-1-[4-[4-[1-[(4-methyl-1,3-thiazol-2-yl)sulfonyl]cyclopropyl]-6-morpholin-4-ylpyrimidin-2-yl]phenyl]urea] |
| 3.6 | CNC(=O)Nc1ccc(-c2nc(N3CCOCC3)cc(C3(S(=O)(=O)c4nc(C)cs4)CC3)n2)cc1 [Example 42c, 3-methyl-1-[4-[4-[1-[(4-methyl-1,3-thiazol-2-yl)sulfonyl]cyclopropyl]-6-morpholin-4-ylpyrimidin-2-yl]phenyl]urea] |
| 2.57 | Cc1csc(S(=O)(=O)C2(c3cc(N4CCOCC4)nc(-c4ccc(NC(=O)NC5CCC5)cc4)n3)CC2)n1 [Example 42e, 3-cyclobutyl-1-[4-[4-[1-[(4-methyl-1,3-thiazol-2-yl)sulfonyl]cyclopropyl]-6-morpholin-4-ylpyrimidin-2-yl]phenyl]urea] |
| 2.64 | Cc1csc(S(=O)(=O)C2(c3cc(N4CCOCC4)nc(-c4ccc(NC(=O)NCCC#N)cc4)n3)CC2)n1 [Example 42f, 3-(2-cyanoethyl)-1-[4-[4-[1-[(4-methyl-1,3-thiazol-2-yl)sulfonyl]cyclopropyl]-6-morpholin-4-ylpyrimidin-2-yl]phenyl]urea] |
| 4.01 | CCCNC(=O)Nc1ccc(-c2nc(N3CCOCC3)cc(C3(S(=O)(=O)c4nc(C)cs4)CC3)n2)cc1 [Example 42g, 3-[4-[4-[1-[(4-methyl-1,3-thiazol-2-yl)sulfonyl]cyclopropyl]-6-morpholin-4-ylpyrimidin-2-yl]phenyl]-1-propylurea] |
